Measurements taken from patent US20100267561A1, “HERBICIDAL PYRIDAZINONE DERIVATIVES” (priority 2007, published 2010).

Legend:
Format in all cases: in vivo
[1] = test system: Italian ryegrass (Lolium multiflorum); experiment: Test B pre-/postemergence plant response; settings: for Ryegrass, Italian plant response rating: 8 g ai/ha
Summary of the method: (§1)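 Visual scoring from 0 (no effect) to 100 (complete control) against untreated controls was done 13 to 15 days after greenhouse treatment. Chemicals were formulated in a surfactant-containing non-phytotoxic solvent and applied to soil preemergence or to 1- to 4-leaf (2-18 cm) plants postemergence.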

[2] = test system: bermudagrass (Cynodon dactylon); experiment: Test B pre-/postemergence plant response; settings: for Bermudagrass plant response rating: 8 g ai/ha
Summary of the method: as §1

[3] = test system: common (oilseed) sunflower (Helianthus annuus); experiment: Test B pre-/postemergence plant response; settings: Preemergence
Summary of the method: as §1

[4] = test system: downy bromegrass (Bromus tectorum); experiment: Test B pre-/postemergence plant response; settings: for Bromegrass, Downy plant response rating: 8 g ai/ha
Summary of the method: as §1

[5] = test system: giant foxtail (Setaria faberii); experiment: Test B pre-/postemergence plant response; settings: for Foxtail, Giant plant response rating: 8 g ai/ha
Summary of the method: as §1

[6] = test system: lambsquarters (Chenopodium album); experiment: Test B pre-/postemergence plant response; settings: for Lambsquarters plant response rating: 8 g ai/ha
Summary of the method: as §1

[7] = test system: morningglory (Ipomoea coccinea); experiment: Test B pre-/postemergence plant response; settings: for Morningglory plant response rating: 8 g ai/ha
Summary of the method: as §1

[8] = test system: pigweed (Amaranthus retroflexus); experiment: Test B pre-/postemergence plant response; settings: for Pigweed plant response rating: 8 g ai/ha
Summary of the method: as §1

soybean (Glycine max) = experiment: Test B pre-/postemergence plant response; settings: for Soybean plant response rating: 8 g ai/ha
Summary of the method: as §1

[9] = test system: surinam grass (Brachiaria decumbens); experiment: Test B pre-/postemergence plant response; settings: for Surinam Grass plant response rating: 8 g ai/ha
Summary of the method: as §1

[10] = test system: wheat (Triticum aestivum); experiment: Test B pre-/postemergence plant response; settings: for Wheat plant response rating: 8 g ai/ha
Summary of the method: as §1

[11] = test system: canarygrass (Phalaris minor); experiment: Test B postemergence plant response; settings: for Plant response rating, Canarygrass: Postemergence
Summary of the method: (§2)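 Visual injury score from 0 (none) to 100 (complete control) versus controls, taken 13 to 15 days after treatment in the greenhouse; chemicals applied postemergence, as formulated, to plants of 1- to 4-leaf stage (2 to 18 cm tall); dash denotes no test result.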

[12] = test system: chickweed (Stellaria media); experiment: Test B postemergence plant response; settings: for Plant response rating, Chickweed: Postemergence
Summary of the method: as §2

[13] = test system: windgrass (Apera spica-venti); experiment: Test B postemergence plant response; settings: for Plant response rating, Windgrass: Postemergence
Summary of the method: as §2

[14] = test system: winter barley (Hordeum vulgare); experiment: Test B postemergence plant response; settings: for Plant response rating, Barley: Postemergence, scale 0 to 100, 0 no effect, 100 complete control
Summary of the method: as §2

[15] = Postemergence, 16 g ai/ha, scale 0 to 100
[16] = Postemergence, 31 g ai/ha, scale 0 to 100, 0 no effect, 100 complete control
[17] = Postemergence, 62 g ai/ha, scale 0 to 100, 0 no effect, 100 complete control
[18] = Preemergence, 16 g ai/ha, scale 0 to 100 (0 no effect, 100 complete control)
[19] = Preemergence, 31 g ai/ha, 0 to 100 scale, 0 no effect, 100 complete control
[20] = Preemergence, 62 g ai/ha, scale 0 to 100
[21] = 8 g ai/ha, postemergence, 0-100 scale
[22] = 31 g ai/ha, scale 0 to 100, 0 no effect, 100 complete control
[23] = 62 g ai/ha, scale 0 to 100, 0 no effect, 100 complete control

Cc1cc(-c2ccc(Cl)cc2)nn1-c1c(OS(C)(=O)=O)cnn(C)c1=O [Compound 36]
Ryegrass, Italian plant response rating ([1]; postemergence, 0-100 scale): 10 | Plant response rating, Ryegrass, Italian [1, 15]: 30 | Plant response rating, Ryegrass, Italian [1, 16]: 65 | Plant response rating, Ryegrass, Italian [1, 17]: 95 | Plant response rating, Ryegrass, Italian [1, 18]: 98 | Plant response rating, Ryegrass, Italian [1, 19]: 100 | Plant response rating, Ryegrass, Italian [1, 20]: 100 | Ryegrass, Italian plant response rating ([1]; Preemergence, scale 0 to 100): 20 | Bermudagrass plant response rating ([2]; postemergence, 0-100 scale): 40 | Plant response rating, Bermudagrass [2, 15]: 80 | Plant response rating, Bermudagrass [2, 16]: 100 | Plant response rating, Bermudagrass [2, 17]: 100 | Bermudagrass plant response rating ([2]; Preemergence, scale 0 to 100 (0 no effect, 100 complete control)): 98 | Plant response rating, Bermudagrass [2, 18]: 100 | Plant response rating, Bermudagrass [2, 19]: 100 | Plant response rating, Bermudagrass [2, 20]: 100 | Plant response rating, Sunflower ([3]; 16 g ai/ha, scale 0 to 100 (0 no effect, 100 complete control)): 0 | Plant response rating, Sunflower ([3]; 31 g ai/ha, 0 to 100 scale, 0 no effect, 100 complete control): 0 | Plant response rating, Sunflower ([3]; 62 g ai/ha, scale 0 to 100): 0 | Sunflower plant response rating ([3]; 8 g ai/ha, scale 0 to 100): 0 | Bromegrass, Downy plant response rating ([4]; postemergence, 0-100 scale): 0 | Plant response rating, Bromegrass, Downy [4, 15]: 5 | Plant response rating, Bromegrass, Downy [4, 16]: 40 | Plant response rating, Bromegrass, Downy [4, 17]: 50 | Plant response rating, Bromegrass, Downy [4, 18]: 50 | Plant response rating, Bromegrass, Downy [4, 19]: 50 | Plant response rating, Bromegrass, Downy [4, 20]: 90 | Bromegrass, Downy plant response rating ([4]; Preemergence, scale 0 to 100): 0 | Foxtail, Giant plant response rating ([5]; postemergence, 0-100 scale): 0 | Plant response rating, Foxtail, Giant [5, 15]: 35 | Plant response rating, Foxtail, Giant [5, 16]: 60 | Plant response rating, Foxtail, Giant [5, 17]: 60 | Plant response rating, Foxtail, Giant [5, 18]: 100 | Plant response rating, Foxtail, Giant [5, 19]: 100 | Plant response rating, Foxtail, Giant [5, 20]: 100 | Foxtail, Giant plant response rating ([5]; Preemergence, scale 0 to 100): 100 | Lambsquarters plant response rating ([6]; postemergence, 0-100 scale): 0 | Plant response rating, Lambsquarters [6, 15]: 0 | Plant response rating, Lambsquarters [6, 16]: 0 | Plant response rating, Lambsquarters [6, 17]: 0 | Plant response rating, Lambsquarters [6, 18]: 0 | Plant response rating, Lambsquarters [6, 19]: 0 | Plant response rating, Lambsquarters [6, 20]: 0 | Lambsquarters plant response rating ([6]; Preemergence, scale 0 to 100): 0 | Morningglory plant response rating ([7]; postemergence, 0-100 scale): 0 | Plant response rating, Morningglory [7, 15]: 0 | Plant response rating, Morningglory [7, 16]: 0 | Plant response rating, Morningglory [7, 17]: 0 | Plant response rating, Morningglory [7, 18]: 0 | Plant response rating, Morningglory [7, 19]: 0 | Plant response rating, Morningglory [7, 20]: 0 | Morningglory plant response rating ([7]; Preemergence, scale 0 to 100): 0 | Pigweed plant response rating ([8]; postemergence, 0-100 scale): 0 | Plant response rating, Pigweed [8, 15]: 0 | Plant response rating, Pigweed [8, 16]: 0 | Plant response rating, Pigweed [8, 17]: 0 | Plant response rating, Pigweed [8, 18]: 0 | Plant response rating, Pigweed [8, 19]: 0 | Plant response rating, Pigweed [8, 20]: 0 | Pigweed plant response rating ([8]; Preemergence, scale 0 to 100): 0 | Soybean plant response rating (soybean (Glycine max); postemergence, 0-100 scale): 0 | Plant response rating, Soybean (soybean (Glycine max); [15]): 0 | Plant response rating, Soybean (soybean (Glycine max); [17]): 0 | Plant response rating, Soybean (soybean (Glycine max); [18]): 0 | Plant response rating, Soybean (soybean (Glycine max); [19]): 0 | Plant response rating, Soybean (soybean (Glycine max); [20]): 0 | Soybean plant response rating (soybean (Glycine max); Preemergence, scale 0 to 100): 0 | Surinam Grass plant response rating ([9]; postemergence, 0-100 scale): 70 | Plant response rating, Surinam Grass [9, 15]: 85 | Plant response rating, Surinam Grass [9, 17]: 100 | Plant response rating, Surinam Grass [9, 18]: 100 | Plant response rating, Surinam Grass [9, 19]: 100 | Plant response rating, Surinam Grass [9, 20]: 100 | Surinam Grass plant response rating ([9]; Preemergence, scale 0 to 100): 70 | Wheat plant response rating ([10]; postemergence, 0-100 scale): 0 | Plant response rating, Wheat [10, 15]: 5 | Plant response rating, Wheat [10, 17]: 85 | Plant response rating, Wheat [10, 18]: 0 | Plant response rating, Wheat [10, 19]: 5 | Plant response rating, Wheat [10, 20]: 60 | Wheat plant response rating ([10]; Preemergence, scale 0 to 100): 0 | Canarygrass plant response rating [11, 21]: 0 | Plant response rating, Canarygrass ([11]; 16 g ai/ha, scale 0 to 100): 0 | Plant response rating, Canarygrass [11, 22]: 10 | Plant response rating, Canarygrass [11, 23]: 10 | Chickweed plant response rating [12, 21]: 0 | Plant response rating, Chickweed ([12]; 16 g ai/ha, scale 0 to 100): 0 | Plant response rating, Chickweed [12, 22]: 0 | Plant response rating, Chickweed [12, 23]: 0 | Windgrass plant response rating [13, 21]: 0 | Plant response rating, Windgrass ([13]; 16 g ai/ha, scale 0 to 100): 0 | Plant response rating, Windgrass [13, 23]: 65 | Barley plant response rating [14, 21]: 0 | Plant response rating, Barley ([14]; 16 g ai/ha): 0 | Plant response rating, Barley ([14]; 31 g ai/ha): 15 | Plant response rating, Barley ([14]; 62 g ai/ha): 15
